Source: ChEMBL document CHEMBL1201862, “PubChem BioAssay data set” (2004)
Blank lines part the entries; values can stand above or below the compound they belong to. Active and inactive are the calls of the source.

How the values were obtained:
Large T antigen = Large T antigen (Simian virus 40, UniProt P03070); type: functional, Betapolyomavirus macacae;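 also: Confirmatory-stage PubChem screen for compounds that inhibit SV40 T antigen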
Trypsin = Trypsin (Sus scrofa, UniProt P00761); test: trypsin protease activity blockade – biochemical, quenched peptide fluorescence, cherry-pick, selectivity assay for Rce1 protease inhibitor project, dose response (AID 488789)
CAAX prenyl protease 2 = CAAX prenyl protease 2 (Saccharomyces cerevisiae S288c, UniProt Q03530); type: biochemical
[1] = biological target: Intestinal-type alkaline phosphatase (Homo sapiens, UniProt P09923); test: human intestinal alkaline phosphatase activators, dose response, biochemical, luminescence, uHTS hits (AID 463120); type: functional
Hexokinase = Hexokinase (Trypanosoma brucei, UniProt Q38C41); test: Confirmation assay for inhibitors of Trypanosoma brucei hexokinase 1-Analogue-first series. [Related pubchem assays (depositor defined):AID1430, AID1632, AID2516, AID2560, AID2579, AID2600, AID449725, AID492951]; type: functional
Cannabinoid receptor 2 [2] = biological target: T1, Cannabinoid receptor 2 (Homo sapiens, UniProt P34972); test: SAR analysis of antagonists of the Cannabinoid Receptor 2 using an Image-Based Assay. [Related pubchem assays (depositor defined):AID2013, AID2026]; type: functional
[3] = biological target: T2, G-protein coupled receptor 55 (Homo sapiens, UniProt Q9Y2T6); test: inhibition of LPI-stimulated GPR55 beta-arrestin translocation – imaging, U2OS, beta-arrestin-GFP, LPI agonist, primary screen (AID 2013); type: functional;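 also: antagonist potency measured as reduced agonist-driven arrestin aggregation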
[4] = biological target: T2, G-protein coupled receptor 55; test: blockade of LPI-induced GPR55 arrestin translocation – imaging, U2OS, beta-arrestin-GFP, LPI agonist, set 2, SAR follow-up (AID 2820); type: functional
[5] = Counterscreen for activators of the function of SWI/SNF related, matrix associated, actin dependent regulator of chromatin, subfamily a, member 2 (SMARCA2, BRM): Luminescence-based cell-based high throughput dose response assay to identify non-selective compounds using the VP16 reporter assay.; type: functional
[6] = biological target: T3, G-protein coupled receptor 35 (Homo sapiens, UniProt Q9HC97); test: SAR analysis of Agonists of the GPR35 Receptor using an Image-Based Assay - Set 2. [Related pubchem assays (depositor defined):AID2013, AID2026]; type: functional
[7] = biological target: SWI/SNF-related matrix-associated actin-dependent regulator of chromatin subfamily A member 2 (Homo sapiens, UniProt P51531); test: Luminescence-based cell-based high throughput dose response assay to identify activators of the function of SWI/SNF related, matrix associated, actin dependent regulator of chromatin, subfamily a, member 2 (SMARCA2, BRM).; type: functional
[8] = biological target: T3, G-protein coupled receptor 35; test: SAR analysis of Antagonists of the GPR35 Receptor using an Image-Based Assay - Set 3. [Related pubchem assays (depositor defined):AID2013, AID2026]; type: functional
Cannabinoid receptor 1 [9] = biological target: T4, Cannabinoid receptor 1 (Homo sapiens, UniProt P21554); test: SAR analysis of antagonists of the Cannabinoid Receptor 1 using an Image-Based Assay - Set 2. [Related pubchem assays (depositor defined):AID2013, AID2026]; type: functional
Cannabinoid receptor 1 [10] = biological target: T4, Cannabinoid receptor 1; test: SAR analysis of agonists of the Cannabinoid Receptor 1 using an Image-Based Assay - Set 2. [Related pubchem assays (depositor defined):AID2013, AID2026]; type: functional
Cannabinoid receptor 2 [11] = biological target: T1, Cannabinoid receptor 2; test: SAR analysis of agonists of the Cannabinoid Receptor 2 using an Image-Based Assay. [Related pubchem assays (depositor defined):AID2013, AID2026]; type: functional
[12] = viability of uninfected HEp-2 cells – cell-based, HTS, cytotoxicity control for RSV inhibitor project, dose response (AID 2410); type: functional; details: human respiratory syncytial virus
[13] = biological target: T5, Runt-related transcription factor 1/Core-binding factor subunit beta (Homo sapiens, UniProt Q01196+Q13951); test: Runt domain/CBFb-SMMHC interaction disruptors – biochemical, TR-FRET (AID 1438); type: protein assay
[14] = biological target: T5, Runt-related transcription factor 1/Core-binding factor subunit beta; test: disruptors of Runt domain/CBFb-SMMHC interaction – biochemical, FRET, Cerulean-Runt, Venus-CBFb-SMMHC, uHTS, […] (AID 1434); type: protein assay

T3 sequence (Q9HC97 whole entry): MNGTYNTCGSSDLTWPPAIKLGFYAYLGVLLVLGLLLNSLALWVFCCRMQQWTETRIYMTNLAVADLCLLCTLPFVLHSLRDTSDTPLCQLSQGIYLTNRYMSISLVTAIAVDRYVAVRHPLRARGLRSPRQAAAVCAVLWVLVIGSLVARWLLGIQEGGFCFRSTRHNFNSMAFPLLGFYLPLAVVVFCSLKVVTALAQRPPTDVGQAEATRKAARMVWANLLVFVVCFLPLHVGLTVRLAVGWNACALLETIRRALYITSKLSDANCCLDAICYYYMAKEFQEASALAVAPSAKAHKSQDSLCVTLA
T4 sequence (P21554 whole entry): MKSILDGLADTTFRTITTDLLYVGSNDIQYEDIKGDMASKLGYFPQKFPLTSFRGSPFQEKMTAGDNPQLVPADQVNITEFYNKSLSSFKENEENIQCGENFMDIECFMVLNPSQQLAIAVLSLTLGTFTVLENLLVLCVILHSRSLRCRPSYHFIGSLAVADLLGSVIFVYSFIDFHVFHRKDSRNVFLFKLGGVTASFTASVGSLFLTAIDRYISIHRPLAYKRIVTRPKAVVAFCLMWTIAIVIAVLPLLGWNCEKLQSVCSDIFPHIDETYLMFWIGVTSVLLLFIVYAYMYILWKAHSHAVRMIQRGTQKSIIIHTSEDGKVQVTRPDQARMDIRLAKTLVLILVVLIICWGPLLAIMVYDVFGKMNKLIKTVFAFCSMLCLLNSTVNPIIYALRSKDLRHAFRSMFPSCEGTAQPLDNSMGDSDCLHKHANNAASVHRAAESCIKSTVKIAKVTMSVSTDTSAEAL
T1 sequence (P34972 whole entry): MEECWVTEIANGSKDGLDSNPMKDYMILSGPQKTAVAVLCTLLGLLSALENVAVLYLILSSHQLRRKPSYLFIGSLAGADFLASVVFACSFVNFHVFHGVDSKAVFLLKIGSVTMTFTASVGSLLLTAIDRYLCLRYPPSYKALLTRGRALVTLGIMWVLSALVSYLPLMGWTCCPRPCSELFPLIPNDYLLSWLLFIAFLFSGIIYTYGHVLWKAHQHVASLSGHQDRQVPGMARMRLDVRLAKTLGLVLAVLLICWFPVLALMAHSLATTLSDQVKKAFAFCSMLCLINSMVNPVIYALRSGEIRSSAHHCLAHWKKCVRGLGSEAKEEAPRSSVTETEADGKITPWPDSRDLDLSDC
T2 sequence (Q9Y2T6 whole entry): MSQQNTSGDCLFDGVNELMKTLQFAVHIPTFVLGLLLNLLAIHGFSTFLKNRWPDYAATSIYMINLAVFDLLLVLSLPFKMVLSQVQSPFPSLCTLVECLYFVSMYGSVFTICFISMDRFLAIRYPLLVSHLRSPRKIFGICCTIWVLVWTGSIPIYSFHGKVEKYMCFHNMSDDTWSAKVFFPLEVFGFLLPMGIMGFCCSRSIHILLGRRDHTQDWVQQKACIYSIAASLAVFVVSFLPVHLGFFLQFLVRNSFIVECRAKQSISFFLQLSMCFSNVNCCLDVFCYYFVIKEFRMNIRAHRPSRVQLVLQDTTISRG
T5 sequence (Q01196 whole entry, the tested form may be a part): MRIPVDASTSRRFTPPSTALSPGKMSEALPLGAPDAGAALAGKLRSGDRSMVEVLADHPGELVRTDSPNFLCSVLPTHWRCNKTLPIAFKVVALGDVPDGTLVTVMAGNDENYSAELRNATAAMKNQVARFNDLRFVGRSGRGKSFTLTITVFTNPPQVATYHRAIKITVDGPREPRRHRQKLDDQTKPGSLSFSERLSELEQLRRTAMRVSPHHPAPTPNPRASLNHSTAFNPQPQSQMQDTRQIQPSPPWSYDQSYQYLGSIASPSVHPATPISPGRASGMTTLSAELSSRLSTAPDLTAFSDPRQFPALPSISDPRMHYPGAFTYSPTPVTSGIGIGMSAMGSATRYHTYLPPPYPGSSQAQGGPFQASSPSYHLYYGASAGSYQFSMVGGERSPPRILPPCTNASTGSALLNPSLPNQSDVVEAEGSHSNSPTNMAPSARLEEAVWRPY
T5 sequence (Q13951 whole entry, the tested form may be a part): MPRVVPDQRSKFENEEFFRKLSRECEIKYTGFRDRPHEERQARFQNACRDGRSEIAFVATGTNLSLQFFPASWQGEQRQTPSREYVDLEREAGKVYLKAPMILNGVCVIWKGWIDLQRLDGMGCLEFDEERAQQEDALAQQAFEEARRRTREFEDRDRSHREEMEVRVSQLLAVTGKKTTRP
Chain of CAAX prenyl protease 2 (Q03530 whole entry): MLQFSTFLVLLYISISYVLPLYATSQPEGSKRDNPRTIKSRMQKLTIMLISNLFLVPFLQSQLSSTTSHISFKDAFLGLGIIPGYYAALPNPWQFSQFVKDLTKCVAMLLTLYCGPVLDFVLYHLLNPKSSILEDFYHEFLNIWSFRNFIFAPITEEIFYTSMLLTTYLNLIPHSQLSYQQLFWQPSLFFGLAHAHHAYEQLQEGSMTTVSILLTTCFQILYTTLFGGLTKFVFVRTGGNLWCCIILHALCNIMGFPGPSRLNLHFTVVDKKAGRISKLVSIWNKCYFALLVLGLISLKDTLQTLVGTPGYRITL
Chain of Trypsin (P00761 whole entry): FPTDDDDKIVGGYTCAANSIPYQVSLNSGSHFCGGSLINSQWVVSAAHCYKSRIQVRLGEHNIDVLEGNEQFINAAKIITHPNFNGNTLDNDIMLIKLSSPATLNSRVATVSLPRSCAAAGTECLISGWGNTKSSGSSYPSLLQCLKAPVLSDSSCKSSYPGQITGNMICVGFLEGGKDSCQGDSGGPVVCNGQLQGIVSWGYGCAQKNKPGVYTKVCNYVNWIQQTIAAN
Chain of SWI/SNF-related matrix-associated actin-dependent regulator of chromatin subfamily A member 2 (P51531 whole entry): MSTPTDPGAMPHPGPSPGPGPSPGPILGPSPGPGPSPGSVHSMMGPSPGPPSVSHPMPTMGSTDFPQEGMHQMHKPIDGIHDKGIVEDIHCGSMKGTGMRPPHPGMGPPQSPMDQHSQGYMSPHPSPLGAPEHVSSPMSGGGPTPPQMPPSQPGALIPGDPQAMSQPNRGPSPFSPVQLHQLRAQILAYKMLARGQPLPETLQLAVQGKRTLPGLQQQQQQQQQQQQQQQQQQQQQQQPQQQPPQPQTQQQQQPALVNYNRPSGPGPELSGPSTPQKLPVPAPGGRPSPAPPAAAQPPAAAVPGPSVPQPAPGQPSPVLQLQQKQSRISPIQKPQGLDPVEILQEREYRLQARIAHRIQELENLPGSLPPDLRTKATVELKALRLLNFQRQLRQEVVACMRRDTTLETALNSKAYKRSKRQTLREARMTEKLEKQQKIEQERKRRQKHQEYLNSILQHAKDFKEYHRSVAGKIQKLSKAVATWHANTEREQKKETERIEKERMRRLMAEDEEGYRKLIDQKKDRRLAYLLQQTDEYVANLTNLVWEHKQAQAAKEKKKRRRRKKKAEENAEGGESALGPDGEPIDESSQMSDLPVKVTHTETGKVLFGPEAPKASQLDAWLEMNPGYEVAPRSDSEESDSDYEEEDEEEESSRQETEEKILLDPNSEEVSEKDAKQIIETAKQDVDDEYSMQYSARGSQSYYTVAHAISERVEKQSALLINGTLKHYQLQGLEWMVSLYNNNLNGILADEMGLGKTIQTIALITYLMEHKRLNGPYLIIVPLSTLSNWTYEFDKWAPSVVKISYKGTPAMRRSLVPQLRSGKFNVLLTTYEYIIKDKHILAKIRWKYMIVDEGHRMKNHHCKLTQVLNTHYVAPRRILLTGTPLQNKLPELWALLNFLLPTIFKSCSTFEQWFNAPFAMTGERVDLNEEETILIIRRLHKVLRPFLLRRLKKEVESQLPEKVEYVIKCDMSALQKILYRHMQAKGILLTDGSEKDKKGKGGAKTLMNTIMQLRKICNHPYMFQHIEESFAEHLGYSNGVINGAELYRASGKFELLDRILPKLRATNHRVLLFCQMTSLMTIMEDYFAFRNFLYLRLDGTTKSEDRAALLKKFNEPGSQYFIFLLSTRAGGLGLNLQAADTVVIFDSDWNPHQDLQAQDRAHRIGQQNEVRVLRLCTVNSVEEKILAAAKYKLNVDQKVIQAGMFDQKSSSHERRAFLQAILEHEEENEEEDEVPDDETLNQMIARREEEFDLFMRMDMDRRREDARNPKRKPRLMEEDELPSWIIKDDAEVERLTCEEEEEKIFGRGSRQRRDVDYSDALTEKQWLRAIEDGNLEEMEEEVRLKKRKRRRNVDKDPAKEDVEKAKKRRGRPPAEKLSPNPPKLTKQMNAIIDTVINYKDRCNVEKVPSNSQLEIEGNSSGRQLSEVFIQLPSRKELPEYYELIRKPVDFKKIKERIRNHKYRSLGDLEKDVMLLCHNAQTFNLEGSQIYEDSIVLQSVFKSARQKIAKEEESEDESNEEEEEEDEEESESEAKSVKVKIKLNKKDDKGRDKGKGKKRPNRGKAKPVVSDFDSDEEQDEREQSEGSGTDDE
Chain of Hexokinase (Q38C41 whole entry): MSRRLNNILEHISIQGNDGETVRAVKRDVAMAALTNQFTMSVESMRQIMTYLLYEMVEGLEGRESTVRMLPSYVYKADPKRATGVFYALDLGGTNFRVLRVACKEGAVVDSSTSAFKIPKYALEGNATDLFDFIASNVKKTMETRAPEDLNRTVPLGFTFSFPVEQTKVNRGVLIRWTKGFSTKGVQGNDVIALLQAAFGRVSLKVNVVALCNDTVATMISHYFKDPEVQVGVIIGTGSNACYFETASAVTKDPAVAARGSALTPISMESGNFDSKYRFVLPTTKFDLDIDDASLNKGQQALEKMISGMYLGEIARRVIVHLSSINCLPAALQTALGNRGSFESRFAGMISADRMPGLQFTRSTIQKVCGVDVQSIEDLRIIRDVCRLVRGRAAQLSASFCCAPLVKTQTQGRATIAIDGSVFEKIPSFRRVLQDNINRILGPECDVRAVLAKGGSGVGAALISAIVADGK

IC50 (Large T antigen): 6.76 µM (active) | AC50 (Trypsin): 11.9 µM (active) | AC50 (CAAX prenyl protease 2): > 100 µM (inactive)
Compound: O=C(O)c1ccc(-c2ccc(O)c(F)c2)cc1

EC50 [1]: 13 µM (active)
Compound: Cc1ccc(O)c(-c2cc(C(=O)NCc3ccc4c(c3)OCO4)[nH]n2)c1

Compound: COC(=O)c1ccc(Cl)cc1NC(=O)c1ccccc1OC
IC50 (Hexokinase): > 25 µM (inactive)

Compound: Cc1ccc2nc3c(cc(C(=O)NCc4ccco4)c(=N)n3C3CCCC3)c(=O)n2c1
IC50 (Cannabinoid receptor 2 [2]): > 32 µM (inactive) | IC50 [3]: 3.98 µM (active) | IC50 [4]: 0.354 µM (active) | EC50 [5]: > 91.2 µM (inactive) | EC50 [6]: > 32 µM (inactive) | EC50 [7]: > 91.2 µM (inactive) | IC50 [8]: > 32 µM (inactive) | IC50 (Cannabinoid receptor 1 [9]): > 32 µM (inactive) | EC50 (Cannabinoid receptor 1 [10]): > 32 µM (inactive) | EC50 (Cannabinoid receptor 2 [11]): > 32 µM (inactive)

Compound: Nc1c(C(=O)NCc2ccco2)c2nc3ccccc3nc2n1CCc1ccccc1F
CC50 [12]: 24.3 µM (active) | IC50 [13]: 86.3 µM (inactive) | IC50 [14]: 13.7 µM (active)
